# In publication PMC12670164, “In vitro and clinical data demonstrate negligible risk of drug–drug interactions with opelconazole, a novel inhaled antifungal agent” (Journal of Antimicrobial Chemotherapy, 2025):
# Experiments:
# CYP3A4 = CYP3A4 (Homo sapiens, UniProt P08684); experiment: clinical
# Protocol: The study documents were approved by an Independent Ethics Committee. Study participants provided written informed consent prior to any study procedures.
# Screening occurred within 28 days prior to the first dosing day (Figure 1). […] On Days 1 and 15, participants received oral midazolam 7.5 mg and oral caffeine 180 mg together after food ingestion.
# Morning doses of opelconazole on Day 2 and Day 15 were taken 30 min after food ingestion.
# Primary PK parameters assessed for midazolam and its metabolites (1-OH-midazolam, 4-OH-midazolam), caffeine and opelconazole were Cmax and AUC, from time zero to t, where t is the time of the last quantifiable concentration (AUC(0−t); i.e., AUC(0−12) and AUC(0−24)). Secondary PK parameters were AUC(0−∞), Tmax, apparent t1/2 and accumulation ratio (RO) of opelconazole only.
# For caffeine, midazolam and the metabolites of midazolam, the geometric mean ratio (GMR) of Day 15 estimates to those obtained on Day 1 was derived by fitting a linear mixed effect model with the log of the parameter as the response, visit as the fixed effect, and participant as the random effect.
# CYP1A2 [1] = experiment: clinical; details: both, human, plasma, po, 180 mg, probe caffeine
# Source text: To adjust for any residual caffeine in plasma samples, the estimated contribution of residual, pre-dose caffeine was subtracted from the measured caffeine concentration to produce an ‘adjusted concentration.’ Residual caffeine concentrations were estimated from the baseline concentration and the measured elimination rate in individual participants.
# CYP1A2 [2] = experiment: CYP induction, mRNA endpoint, cryopreserved human hepatocytes; details: human, 72 h
# Protocol: The potential for opelconazole to act as an inducer of CYP isoforms CYP1A2, CYP2B6 and CYP3A4 was assessed in vitro using an mRNA endpoint across three donors in cryopreserved human hepatocytes. A drug is interpreted as an inducer if: (1) it increases mRNA expression of a CYP enzyme in a concentration-dependent manner and (2) the fold change of CYP mRNA expression relative to vehicle control is ≥2-fold at the drug’s expected hepatic concentrations.[23]
# A cytotoxicity assessment using MTT was performed in one of the three donors used for the induction studies prior to dosing.
# [3] = Day 1, oral midazolam 7.5 mg without opelconazole
# [4] = Day 15, oral midazolam 7.5 mg after 14 days inhaled opelconazole 14.8 mg twice daily
# [5] = both, human, in vivo, po, 7.5 mg
# Chain of CYP3A4 (P08684 whole entry): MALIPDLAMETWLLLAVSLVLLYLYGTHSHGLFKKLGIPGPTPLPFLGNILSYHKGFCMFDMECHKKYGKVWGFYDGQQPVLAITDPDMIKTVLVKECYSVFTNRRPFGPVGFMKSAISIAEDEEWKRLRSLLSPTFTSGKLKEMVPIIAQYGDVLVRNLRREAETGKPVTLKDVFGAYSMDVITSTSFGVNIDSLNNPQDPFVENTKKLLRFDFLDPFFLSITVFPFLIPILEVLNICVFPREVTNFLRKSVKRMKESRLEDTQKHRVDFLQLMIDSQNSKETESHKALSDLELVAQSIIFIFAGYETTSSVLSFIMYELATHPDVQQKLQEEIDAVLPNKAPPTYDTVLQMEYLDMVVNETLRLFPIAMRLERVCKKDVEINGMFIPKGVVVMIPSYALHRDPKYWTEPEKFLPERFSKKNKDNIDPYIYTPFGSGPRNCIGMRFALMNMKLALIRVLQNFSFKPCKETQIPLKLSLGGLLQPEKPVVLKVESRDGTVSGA
SMILES,"AUC(0–24h), geometric mean (CYP3A4; [3])","Cmax, geometric mean (CYP3A4; [3])","AUC(0–24h), geometric mean (CYP3A4; [4])","Cmax, geometric mean (CYP3A4; [4])",other results
"OCc1ncc2n1-c1ccc(Cl)cc1C(c1ccccc1F)=NC2 [1-OH-Midazolam, 1-OH-midazolam]",72.8 ng·h/mL,16.7 ng/mL,60.9 ng·h/mL,13.4 ng/mL,–
"Cc1ncc2n1-c1ccc(Cl)cc1C(c1ccccc1F)=NC2O (stereo not shown) [4-OH-Midazolam, 4-OH-midazolam]",8.92 ng·h/mL,1.97 ng/mL,8.70 ng·h/mL,1.78 ng/mL,–
"Cn1c(=O)c2c(ncn2C)n(C)c1=O [Caffeine, caffeine]",–,–,–,–,AUC(0-t) (CYP1A2 [1]): 33200 ng·h/mL; Cmax (CYP1A2 [1]): 3280 ng/mL
"Cc1ncc2n1-c1ccc(Cl)cc1C(c1ccccc1F)=NC2 [Midazolam, midazolam, reference compound]",–,–,–,–,AUC(0-t) (CYP3A4; [5]): 166 ng·h/mL; Cmax (CYP3A4; [5]): 35.1 ng/mL
"COc1ccc2[nH]c([S+]([O-])Cc3ncc(C)c(OC)c3C)nc2c1 (stereo not shown) [omeprazole, reference compound]",–,–,–,–,induction outcome of positive control relative to opelconazole (CYP1A2 [2]): > 30 fold
